15 compounds from PMC6832960, “The Fragment-Based Development of a Benzofuran Hit as a New Class of Escherichia coli DsbA Inhibitors” (Molecules, 2019) can be followed below.

For series [1], the target named is T1, EcDsbA (Escherichia coli, UniProt P0AEG4).
T1 construct: made in house; protein recovered from the periplasm of the expressing cells
The experiment in a line: STD ligand-detected NMR binding. The following applies: compound 500 µM, unlabelled EcDsbA 10 µM, 298 K. From the text: (§1) To validate the binding of benzofuran analogues, three ligand-detected NMR methods, saturation-transfer difference (STD), Carr–Purcell–Meiboom–Gill (CPMG), and water–ligand observed via gradient spectroscopy (waterLOGSY), were employed to detect protein-ligand binding between the benzofurans and EcDsbA (Figure 2C). These experiments were designed as a primary screening tool to select analogues to undergo further affinity evaluation and prioritise compounds for crystal soaking. […] In a good agreement with this finding, eight out of nine benzofurans that passed all three ligand-detected experiments have their co-crystal structures successfully solved; in contrast, five compounds that failed two ligand-detected experiments only have one co-structure solved (Table 2).
(§2) For ligand-detected NMR spectroscopy, two samples (compound alone and compound + protein) were prepared for each compound. Unlabelled EcDsbA was prepared at 10 µM in a buffer of 50 mM sodium phosphate, pH 6.8, 25 mM NaCl, 100 µM 4,4-dimethyl 4-silapentane-1-sulfonic acid (DSS), and 10% ^2H2O. Compound was added to the protein sample to achieve final concentration of 500 µM (2% ^2H6-DMSO). ^1H 1D spectrum was acquired for each compound at 500 µM as a reference spectrum. All ligand-detected NMR experiments (STD, CPMG, and waterLOGSY) were acquired at 298 K on a Bruker Avance III 600 MHz NMR spectrometer equipped with a 5 mm TXI CryoProbe (Bruker, Billerica, MA, USA). STD spectra were acquired with 3 s of saturation at 1 ppm (on-resonance) and 33.3 ppm (off-resonance). WaterLOGSY spectra were acquired for compound alone and compound + protein with a 0.52 s acquisition time, 3 s relaxation delay, and 3 s Nuclear Overhauser effect (NOE) mixing time. CPMG spectra for compound alone and compound + protein were acquired with a constant spin echo delay of 1 ms and spin-lock period of 350 ms. The data was analysed using Topspin3.5 (Bruker) and DSS was used to reference the spectra.

In series [2] the target is T1, EcDsbA. The experiment in a line: CPMG ligand-detected NMR binding. The following applies: compound 500 µM, unlabelled EcDsbA 10 µM, 298 K, spin-lock 350 ms.
Excerpt: as §1, §2

The target in series [3] is T1, EcDsbA. The experiment in a line: Compound soaking into EcDsbA crystals and X-ray diffraction. The format is binding. The following applies: crystals soaked with compound at 10 mM (5% DMSO) for 3–6 h. From the text: The synthesised analogues were soaked into crystals of EcDsbA and X-ray diffraction data was collected for each analogue in order to determine their site of binding. […] The carboxy moiety of 15 was oriented towards the left-hand side of the binding groove, where more polar residues are located. The phenyl ring of the aniline moiety occupied the hydrophobic end of the binding pocket with the nitrogen atom of the amine linker positioned in close proximity to Gln35. […] Although anisidine 16 was occupying a larger region of the EcDsbA binding groove, the shift appeared to have interrupted the π-stacking interactions the benzofuran was making with the His32 side chain previously (Figure 1B and Figure S1).
EcDsbA was crystallised as previously described. Briefly, 1 µL of 30 mg/mL EcDsbA was mixed with an equal volume of crystallisation buffer (11–13% PEG8000, 5–7.5% glycerol, 1 mM CuCl2, 100 mM, sodium cacodylate pH 6.1) and equilibrated against 500 µL of reservoir buffer at 20 °C using hanging drop vapour diffusion. For compound soaking, crystals were transferred into 2 µL drops of 24% PEG8000, 22% glycerol, and 100 mM sodium cacodylate (pH 6.1) containing a compound of interest at the final concentration of 10 mM (5% DMSO) and were incubated for 3–6 h. Crystals were mounted on loops and flash-cooled in liquid nitrogen.
Datasets were collected at the Australian synchrotron on MX1 and MX2 beamlines using the Blue-Ice software (Irvine, CA, USA). MX1 beamline was equipped with an ADSC Quantum 210r detector and MX2 with an ADSC Quantum 315r detector. All datasets were indexed and integrated with iMOSFLM [32] or XDS [33]—and scaled using AIMLESS [34, 35] or SCALA [36]. Phasing was performed by molecular replacement with Phaser using the previously solved structure of EcDsbA as a search model (PDB code 1FVK). The final structure was obtained after several rounds of manual model building using Coot and refinement in phenix.refine. Structures, factors and coordinates have been deposited in the Protein Data Bank (PDB; http://www.pdb.org) under the accession codes of 6PMF, 6POQ, 6POH, 6PML, 6PVY, 6POI, and 6PVZ.

For series [4], the target named is T1, EcDsbA. As to the kind of experiment: waterLOGSY ligand-detected NMR binding. Particulars: compound 500 µM, unlabelled EcDsbA 10 µM, 298 K.
Excerpt: as §1, §2

For another series, the target named is T2, 15N-labelled EcDsbA (Escherichia coli, UniProt P0AEG4).
T2 construct: made in house; protein recovered from the periplasm of the expressing cells
T2 sequence (P0AEG4 20-208): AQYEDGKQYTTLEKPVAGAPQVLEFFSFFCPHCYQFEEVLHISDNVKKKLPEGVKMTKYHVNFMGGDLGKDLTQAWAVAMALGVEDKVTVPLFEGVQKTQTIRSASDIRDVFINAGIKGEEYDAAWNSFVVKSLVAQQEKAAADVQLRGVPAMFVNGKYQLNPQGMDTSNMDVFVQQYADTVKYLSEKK
The experiment in a line: 2D 1H-15N HSQC chemical shift perturbation / titration. The format is binding. The following applies: for Ligand Efficiency: LE = −RTln(KD)/HAC, 298 K. The method, then:
Compounds that passed at least one ligand-detected NMR experiment were further validated by 2D ^1H-^15N heteronuclear single quantum coherence (HSQC) spectroscopy. In HSQC experiments, chemical shift perturbations (CSP) of backbone amide resonances of ^15N-labelled EcDsbA were measured upon addition of compound at 1 mM. […] In accordance with the crystal structure, the majority of the residues perturbed by 1 mM of benzofuran analogues in single-point HSQCs are located around the hydrophobic groove which is an important binding site for DsbA substrates (Figure 2A). […] Eight compounds produced large enough CSP (>0.04 ppm) to enable HSQC titration and KD determination.
For the 2D ^1H-^15N-HSQC titration experiment, 100 µM of ^15N-labelled EcDsbA in a buffer of 50 mM HEPES, pH 6.8, 50 mM NaCl, 2% ^2H6-DMSO, and 10% ^2H2O, was titrated with increasing concentrations of compounds ([…], 0.125, 0.25, 0.5, and 1 mM). Data were acquired on a Bruker 600 MHz spectrometer equipped with a 5 mm TXI CryoProbe and a Bruker 700 MHz spectrometer equipped with a 5 mm TXI CryoProbe. Data was processed by Topspin3.5 (Bruker) and analysed by Sparky (T. D. Goddard and D. G. Kneller, SPARKY 3, University of California, San Francisco (UCSF)). Weighted chemical shift perturbations (CSP) that were observed upon addition of compounds to EcDsbA were calculated using an Equation (1) in [41]: (1) CSP=ΔδH^2+(0.2×ΔδN)^2 where ΔδH and ΔδN denote the change in chemical shift of amide proton and nitrogen resonances upon addition of the compound. Equilibrium dissociation constants (KD) were determined by fitting the plot of CSP against compound concentrations using one site with ligand depletion model (Equation (2)): (2) CSP=CSPmax×[(KD+Pt+Lt)−((KD+Pt+Lt)^2−4×Pt×Lt)]/2×Pt where CSP is the measured CSP at a given concentration, CSPmax is the CSP observed at the saturating concentration of compound, and Pt and Lt are the total protein and compound concentrations. The ligand efficiency (LE) is calculated using the Equation (3) in [42]: (3) LE=−ΔG/HAC=−RTln(KD)/HAC where R is gas constant (1.9858775 cal K^−1 mol^−1), T is temperature (298 K), KD is equilibrium dissociation constant, and HAC is the number of heavy (non-hydrogen) atoms.

SMILES strings stand for the structures.

T1 sequence (P0AEG4 20-208): as above

Take `COc1ccc(CC(=O)NC(C(=O)O)c2coc3cc(Br)ccc23)cc1` (stereo not drawn) [compound 48, 2-(6-Bromobenzofuran-3-yl)-2-(2-(4-methoxyphenyl)acetamido)acetic acid]: the melting point was 159 to 161 °C. Further, the STD result on EcDsbA [1] is on record as “Fail”. Besides, at EcDsbA [2], the CPMG result is “Fail”. Moreover, at EcDsbA [3], the “Crystal Structure in EcDsbA” value is recorded as “No”. For the same compound, the wLOGSY result at EcDsbA [4] was “Pass”. On 15N-labelled EcDsbA, the Kd came out at 1350 ± 420 µM and the “Ligand Efficiency” value amounted to 0.15 kcal mol^−1 HAC^−1.
Compound `COc1ccc(Nc2ccc3c(CC(=O)O)coc3c2)cc1` [compound 16, 2-(6-((4-Methoxyphenyl)amino)benzofuran-3-yl)acetic acid] returned a melting point of 120 to 122 °C. For the same compound, the STD result at EcDsbA [1] was “Fail”. Moreover, at EcDsbA [2], the CPMG result is reported as “Pass”. Besides, the “Crystal Structure in EcDsbA” value on EcDsbA [3] was “Yes”. At EcDsbA [4], the wLOGSY entry was “Pass”. At 15N-labelled EcDsbA, the Kd worked out at 2700 ± 920 µM and the “Ligand Efficiency” value stood at 0.16 kcal mol^−1 HAC^−1.
Regarding `O=C(NC(C(=O)O)c1coc2cc(Br)ccc12)c1ccccc1` (stereo not drawn) [compound 47, 2-Benzamido-2-(6-bromobenzofuran-3-yl)-2-acetic acid], the melting point fell in the range of 209 to 212 °C. For the same compound, the STD entry on EcDsbA [1] is “Fail”. The CPMG entry at EcDsbA [2] is listed as “Fail”. The “Crystal Structure in EcDsbA” value on EcDsbA [3] is recorded as “No”. Further, the wLOGSY result on EcDsbA [4] is reported as “Pass”.
Consider `O=C(O)Cc1c[nH]c2cc(-c3ccccc3)ccc12` [compound 36, 2-(6-Phenyl-1H-indol-3-yl)acetic acid], for which the STD entry at EcDsbA [1] was “Pass”. The CPMG result on EcDsbA [2] is recorded as “Pass”. Further, the “Crystal Structure in EcDsbA” value on EcDsbA [3] is “lack of electron density and No”. Moreover, the wLOGSY result at EcDsbA [4] is given as “Pass”.
With `CC(=O)NC(C(=O)O)c1coc2cc(Br)ccc12` (stereo not drawn) [compound 46, 2-Acetamido-2-(6-bromobenzofuran-3-yl)acetic acid], the melting point was in the range of 194 to 196 °C. Besides, the STD entry on EcDsbA [1] was “Fail”. Besides, the CPMG result at EcDsbA [2] is on record as “Fail”. The “Crystal Structure in EcDsbA” value at EcDsbA [3] is “No”. The wLOGSY result at EcDsbA [4] was “Pass”.
`COc1cccc(Oc2ccc3c(CC(=O)O)coc3c2)c1` [compound 26, 2-(6-(3-Methoxyphenoxy)benzofuran-3-yl)acetic acid]: the STD entry at EcDsbA [1] was “Pass”. In addition, at EcDsbA [2], the CPMG entry is on record as “Pass”. Also, the wLOGSY entry on EcDsbA [4] is given as “Pass”. Moreover, at 15N-labelled EcDsbA, the Kd was determined as 639 ± 87 µM and the “Ligand Efficiency” value worked out at 0.20 kcal mol^−1 HAC^−1. Besides, the “fold decrease in binding affinity” value on 15N-labelled EcDsbA (relative to 25) is on record as 2 fold.
Regarding `Brc1ccc2c(Cc3nnn[nH]3)coc2c1` [compound 31, 5-((6-Bromobenzofuran-3-yl)methyl)-1H-tetrazole], on EcDsbA [1], the STD entry is “Pass”. In addition, the CPMG result on EcDsbA [2] was “Pass”. On EcDsbA [3], the “Crystal Structure in EcDsbA” value was “did not produce electron density and No”. Moreover, at EcDsbA [4], the wLOGSY result is “Pass”.
Regarding `O=C(O)C(NS(=O)(=O)c1ccccc1)c1coc2cc(Br)ccc12` (stereo not drawn), the melting point lay in the range of 179 to 182 °C.
On to `CC(C)COc1ccc2c(CC(=O)O)coc2c1` [compound 22, 2-(6-Isobutoxybenzofuran-3-yl)acetic acid], for which, at EcDsbA [1], the STD entry is on record as “Fail”. Besides, on EcDsbA [2], the CPMG result is “Pass”. Further, the “Crystal Structure in EcDsbA” value at EcDsbA [3] is “Yes”. Besides, the wLOGSY entry at EcDsbA [4] is reported as “Fail”. The “chemical shift perturbations (CSP) of hydrophobic groove residues” value at 15N-labelled EcDsbA (single-point HSQC, compound at 1 mM) is given as “too small to determine KD”.
As for `O=C(O)Cc1coc2cc(Cc3ccccc3)ccc12` [compound 28, 2-(6-Benzylbenzofuran-3-yl)acetic acid], the melting point lay in the range of 124 to 127 °C. Further, the STD entry on EcDsbA [1] is recorded as “Pass”. Further, the CPMG entry at EcDsbA [2] is recorded as “Pass”. Also, on EcDsbA [3], the “Crystal Structure in EcDsbA” value was “Yes”. On EcDsbA [4], the wLOGSY entry was “Pass”. Also, at 15N-labelled EcDsbA, the Kd turned out to be 341 ± 47 µM and the “Ligand Efficiency” value is recorded as 0.24 kcal mol^−1 HAC^−1.
For the compound `O=C(O)Cc1coc2cc(Oc3ccccc3)ccc12` [compound 25, 2-(6-Phenoxybenzofuran-3-yl)acetic acid], at EcDsbA [1], the STD result is “Pass”. Moreover, the CPMG entry at EcDsbA [2] is “Pass”. Further, the “Crystal Structure in EcDsbA” value at EcDsbA [3] was “Yes”. For the same compound, the wLOGSY result on EcDsbA [4] is listed as “Pass”. On 15N-labelled EcDsbA, the Kd was 326 ± 25 µM and the “Ligand Efficiency” value was 0.24 kcal mol^−1 HAC^−1.
For `O=C(O)Cc1coc2ccc(OCc3ccccc3)cc12` [compound 24, 2-(5-(Benzyloxy)benzofuran-3-yl)acetic acid], the melting point is 147 to 149 °C. Besides, the “Crystal Structure in EcDsbA” value at EcDsbA [3] was “did not show clear enough electron density”.
Turning to `O=C(O)Cc1coc2cc(Br)ccc12` [compound 6, 2-(6-Bromobenzofufran-3-yl)acetic acid], on 15N-labelled EcDsbA (fragment hit from biophysical screening), the “affinity to EcDsbA” value is “high mM affinity”.
Compound `CS(=O)(=O)NC(C(=O)O)c1coc2cc(Br)ccc12` (stereo not drawn) [compound 50, 2-(6-Bromobenzofuran-3-yl)-2-(methylsulfonamido)acetic acid] yielded a melting point of 140 to 142 °C. On EcDsbA [1], the STD entry is “Pass”. At EcDsbA [2], the CPMG entry is “Pass”. Moreover, the “Crystal Structure in EcDsbA” value at EcDsbA [3] is given as “Yes”. For the same compound, the wLOGSY result at EcDsbA [4] is on record as “Pass”.
For the compound `O=C(O)Cc1c[nH]c2cc(Br)ccc12` [compound 34, 2-(6-Bromo-1H-indol-3-yl)acetic acid], on EcDsbA [3], the “Crystal Structure in EcDsbA” value is recorded as “lack of electron density”.
